Data: PMC5412352 (International Journal of Molecular Sciences, 2017)
Like-named read-outs stand apart in the source and are kept apart here.

What was measured:
[1] = biological target: human GhrR (hGhrR-eYFP, HEK293 cell membranes) (Homo sapiens, UniProt Q92847); assay: Competitive radioligand binding assay with [125I-His9]ghrelin at hGhrR membranes; conditions: for fold higher IC50 than (S)-9: hGhrR binding IC50 relative to starting compound (S)-9
[2] = HPLC-based chromatographic hydrophobicity index on immobilized artificial membranes (CHI IAM); format: physicochemical; conditions: IAM PC DD2 column, acetonitrile / 50 mM ammonium acetate gradient
Text: Physicochemical properties of a drug such as lipophilicity and non-specific binding to membranes and plasma proteins are crucial parameters of a potential radiotracer, in particular if it is supposed to pass the blood brain barrier (BBB). The lipophilicity (logD7.4) was estimated using the commercially available ACD/Labs-12.5 software and the non-specific binding was estimated by the high-performance liquid chromatography (HPLC)-based hydrophobicity index at immobilized artificial membranes (CHI IAM) for seven fluorine substituted candidate molecules and (S)-13 without fluorine (Table 3).
The chromatographic hydrophobicity index on immobilized artificial membranes (CHI IAM) was experimentally determined by a HPLC method described by Valko and co-workers using a IAM PC DD2 column (100 × 4.6 mm, […], Regis Technologies, IL, USA), a gradient of acetonitrile, and 50 mM ammonium acetate as eluent and acetanilide, acetophenone, 1,4-dinitrobenzene, anisole propiophenone, valerophenone, and octanophenone as references.

human α3β4 nAChR = biological target: T1, human α3β4 nAChR (Homo sapiens, UniProt P30926+P32297); assay: Selectivity radioligand displacement, [3H]epibatidine, transfected HEK cells; format: binding; conditions: read-out: Ki at α3β4 nAChRs
T1 construct: expressed in transfected cells; host or cells: HEK cells (by courtesy of Dominik Feuerbach, Novartis), homogenate
Description: […]
(§1) The incubations were terminated by rapid filtration via glass-fiber filters presoaked in PEI (0.3%, 60 min at rt), and the filter-bound radioactivity was counted by liquid scintillation counting (Tricarb, PerkinElmer).

[3] = biological target: hGhrR (COS7 cells stably expressing hGhrR-eYFP) (Homo sapiens, UniProt Q92847); assay: cell-based; conditions: for Emax: COS-7, mean ± SEM, refers to ghrelin Emax as 100%, 0% = constitutive receptor activity
rat σ2 receptor = biological target: T2, rat σ2 receptor (Rattus norvegicus, UniProt Q5U3Y7); assay: Selectivity radioligand displacement, [3H]DTG, rat liver homogenate; format: binding; conditions: [3H]DTG + 1 µM dextrallorphan
T2 construct: rat σ2 receptor = rat liver homogenate; from tissue; host or cells: rat liver homogenate
T2 sequence (Q5U3Y7 1-176): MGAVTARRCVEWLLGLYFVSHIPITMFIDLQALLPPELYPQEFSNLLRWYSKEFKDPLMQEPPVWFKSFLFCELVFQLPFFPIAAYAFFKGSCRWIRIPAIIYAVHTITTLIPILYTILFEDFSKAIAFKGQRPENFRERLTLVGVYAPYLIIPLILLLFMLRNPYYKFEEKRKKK
Description: […]
as §1

[4] = biological target: T3, hGhrR (COS7 cells stably transfected with hGhrR) (Homo sapiens, UniProt Q92847); assay: Inositol phosphate accumulation assay, antagonistic potency with 10^-8 M ghrelin; format: cell-based; conditions: for Emax: COS-7, read-out: Emax (antagonistic efficacy)
T3 construct: expressed in transfected cells
Description: Antagonistic properties at the hGhrR
antagonistic potency in an inositol phosphate accumulation assay (Table S1). The receptor was
Table S1. Inositol phosphate accumulation assay to determine antagonistic potencies of candidate
Compounds were analyzed by inositol phosphate accumulation in COS7 cells stably

[5] = EC50, 2 h stimulation in absence of ghrelin, COS7-hGhrR
[6] = pEC50, mean ± SEM, 2 h stimulation in absence of ghrelin
[7] = 5 min pre-stimulation with compound, then 10^-8 M ghrelin, read-out: IC50 (antagonistic potency)

hGhrR (COS7 cells stably expressing hGhrR-eYFP), sequence (Q92847 whole entry): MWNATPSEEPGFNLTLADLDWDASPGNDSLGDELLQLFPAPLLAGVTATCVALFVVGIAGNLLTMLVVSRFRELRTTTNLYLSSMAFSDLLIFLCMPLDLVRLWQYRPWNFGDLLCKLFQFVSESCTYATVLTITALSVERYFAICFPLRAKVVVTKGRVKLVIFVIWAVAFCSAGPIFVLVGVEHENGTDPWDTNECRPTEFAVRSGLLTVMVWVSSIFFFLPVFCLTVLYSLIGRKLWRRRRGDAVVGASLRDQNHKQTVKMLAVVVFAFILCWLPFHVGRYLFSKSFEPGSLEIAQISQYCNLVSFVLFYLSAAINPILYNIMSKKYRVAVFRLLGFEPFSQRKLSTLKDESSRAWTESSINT
human GhrR (hGhrR-eYFP, HEK293 cell membranes), sequence (Q92847 whole entry): as above
T3 sequence (Q92847 whole entry): as above
T1 sequence (P32297 32-505): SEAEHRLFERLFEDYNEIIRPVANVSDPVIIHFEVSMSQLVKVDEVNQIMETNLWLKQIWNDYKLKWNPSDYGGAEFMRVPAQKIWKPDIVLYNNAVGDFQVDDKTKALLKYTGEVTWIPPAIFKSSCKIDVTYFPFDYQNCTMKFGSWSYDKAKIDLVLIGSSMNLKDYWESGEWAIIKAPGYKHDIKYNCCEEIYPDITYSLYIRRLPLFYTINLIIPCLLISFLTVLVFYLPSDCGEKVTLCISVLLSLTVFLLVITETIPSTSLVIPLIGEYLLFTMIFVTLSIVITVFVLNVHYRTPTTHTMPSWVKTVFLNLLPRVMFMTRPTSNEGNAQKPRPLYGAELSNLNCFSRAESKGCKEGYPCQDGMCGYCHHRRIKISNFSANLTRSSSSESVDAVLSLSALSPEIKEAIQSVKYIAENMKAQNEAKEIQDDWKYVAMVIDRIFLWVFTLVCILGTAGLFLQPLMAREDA
T1 sequence (P30926 22-498): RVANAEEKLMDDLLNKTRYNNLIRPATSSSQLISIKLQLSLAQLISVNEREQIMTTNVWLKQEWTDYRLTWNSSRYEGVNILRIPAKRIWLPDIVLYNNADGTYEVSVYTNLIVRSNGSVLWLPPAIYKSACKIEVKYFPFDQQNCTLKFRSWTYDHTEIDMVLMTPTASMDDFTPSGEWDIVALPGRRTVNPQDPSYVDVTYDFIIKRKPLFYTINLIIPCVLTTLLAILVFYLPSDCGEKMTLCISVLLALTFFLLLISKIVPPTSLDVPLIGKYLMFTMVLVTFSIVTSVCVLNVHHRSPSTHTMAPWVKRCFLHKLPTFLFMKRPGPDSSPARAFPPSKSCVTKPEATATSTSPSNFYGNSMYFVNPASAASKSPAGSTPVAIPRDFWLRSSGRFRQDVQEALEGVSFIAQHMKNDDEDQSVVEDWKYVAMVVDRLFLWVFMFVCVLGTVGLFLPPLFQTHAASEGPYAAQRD

IC50 [1]	CHI IAM [2]	Ki (human α3β4 nAChR)	Emax [3]	EC50 [3, 5]	EC50 [3, 6]	Ki (rat σ2 receptor)	IC50 [4, 7]	Emax [4]	fold higher IC50 than (S)-9 [1]	IC50 ([4]; mean ± SEM, with 10^-8 M ghrelin, read-out: pIC50 (antagonistic potency) (converted))	Structure (SMILES)
574 nM	43.3	64 ± 14 nM	–	–	–	–	–	–	–	–	Cc1nc2ccc(Oc3ccc(Br)cc3F)nc2c(=O)n1C[C@H]1CCCN(CCCCF)C1 [(S)-12, (S)-6-(4-Bromo-2-fluorophenoxy)-3-((1-(4-fluorobutyl)piperidin-3-yl)methyl)-2-methylpyrido[3,2-d]pyrimidin-4(3H)-one]
3.89 nM	42.8	–	~60%	0.6 nM	0.55 nM	53 ± 7 nM	17.5 nM	45 ± 5%	–	–	Cc1nc2ccc(Oc3ccc(Br)cc3F)nc2c(=O)n1C[C@@H]1CCCN(C(C)C)C1 [(R)-9, (R)-6-(4-Bromo-2-fluorophenoxy)-3-((1-isopropylpiperidin-3-yl)methyl)-2-methylpyrido[3,2-d]pyrimidin-4(3H)-one]
12.3 nM	42.8	–	42 ± 4%	–	2.14 nM	–	123 nM	57 ± 6%	–	–	Cc1nc2ccc(Oc3ccc(Br)cc3)nc2c(=O)n1C[C@H]1CCCN(C(C)C)C1 [(S)-14]
2.69 nM	42.3	–	40 ± 4%	–	1.02 nM	–	28.7 nM	65 ± 5%	–	–	CC(C)N1CCC[C@H](Cn2cnc3ccc(Oc4ccc(Br)cc4F)nc3c2=O)C1 [(S)-16, (S)-6-(4-Bromo-2-fluorophenoxy)-3-((1-isopropylpiperidin-3-yl)methyl)pyrido[3,2-d]pyrimidin-4(3H)-one]
66 nM	42.2	27 ± 8 nM	~60%	–	2.88 nM	–	349 nM	56 ± 10%	about 30 fold	–	Cc1nc2ccc(Oc3ccc(Br)cc3F)nc2c(=O)n1C[C@H]1CCCN(CCCF)C1 [(S)-11, (S)-6-(4-Bromo-2-fluorophenoxy)-3-((1-(3-fluoropropyl)piperidin-3-yl)methyl)-2-methylpyrido[3,2-d]pyrimidin-4(3H)-one]
12.6 nM	42.8	–	~60%	1.4 nM	1.35 nM	–	207 nM	31 ± 5%	–	204 nM	Cc1nc2ccc(Oc3ccc(Br)cc3F)nc2c(=O)n1C[C@H]1CCCN(C(C)CF)C1 (stereo partly drawn) [(S)-13, 6-(4-Bromo-2-fluorophenoxy)-3-(((3S)-1-(1-fluoropropan-2-yl)piperidin-3-yl)methyl)-2-methylpyrido[3,2-d]pyrimidin-4(3H)-one]
69 nM	39.6	–	~60%	–	1.58 nM	–	345 nM	22 ± 4%	about 30 fold	–	Cc1nc2ccc(Oc3ccc(Br)cc3F)nc2c(=O)n1C[C@H]1CCCN(CCF)C1 [(S)-10, (S)-6-(4-Bromo-2-fluorophenoxy)-3-((1-(2-fluoroethyl)piperidin-3-yl)methyl)-2-methylpyrido[3,2-d]pyrimidin-4(3H)-one]
151 nM	–	–	–	–	–	–	–	–	–	–	CC(C)N1CCC[C@H](Cn2c(F)nc3ccc(Oc4ccc(Br)cc4F)nc3c2=O)C1 [(S)-17, (S)-6-(4-Bromo-2-fluorophenoxy)-2-fluoro-3-((1-isopropylpiperidin-3-yl)methyl)pyrido[3,2-d]pyrimidin-4(3H)-one]
